Patent EP4585606A1, “OL[…] USE AND COMPOSITION THEREOF” (Buddhist Tzu Chi Medical Foundation, priority 2022, dated 2024)

Tested on: human osteoblastic cells hFOB1.19
Assay: alkaline phosphatase (ALP) activity, TRACP & ALP detection kit
Assay type: cell-based
Conditions: hFOB1.19 not treated with the oligopeptides, CaCl2 0.01, 0.06, 0.2, 0.9 and 3.6 µM, 2 days
Experimental: The activity of alkaline phosphatase was measured by a TRACP & ALP detection kit. hFOB1.19 cells were cultured at 2×10^4 cells/well in a 96-well plate for 2 days. After removing the supernatant of the culture, the cells were resuspended in physiological saline. To each well 50 µl of the extract solution was added, and incubated at room temperature for 5 minutes. Then, 50 µl of the matrix solution was added to each well and reacted at 37°C for 60 minutes. Finally, 50 µl of 0.5N NaOH was added to each well to terminate the reaction. After formation of color, the solution was measured for the absorbance at 405 nm.
Alkaline phosphatase is present in bone at a high level, and frequently considered as the indicator for differentiation of osteoblastic cells and growth of bone. In Example 6, human osteoblastic cells hFOB1.19 was not treated with the oligopeptide at the condition of different concentrations of CaCl2, and was treated with the four oligopeptides (0.45 µM) described above at the condition of 3.6 µM CaCl2 for 2 days, to detect the ALP activities in human osteoblastic cells hFOB1.19. […] (In FIGs. 6A and 6B, three separate experiments were performed for each group, and the data were expressed by mean ± SD. Statistical significance: by one-tailed test, *P < 0.05, in respect to the Control groups (A-D).

[Ca+2].[Cl-].[Cl-] [CaCl2]
ALP activities: no significant change
